Results on 35 compounds are retold here after patent US10214507B2, “Carbazole-containing amides, carbamates, and ureas as cryptochrome modulators” (Reset Therapeutics, Inc., priority 2014, dated 2019).

Each structure is given as a SMILES string.

A word on the EC50: it is the concentration giving half of the maximal effect. Lower therefore signals an effect from little substance.

The test has as its system stable U20S reporter cells harboring Per2-dLuc. Kind of test: Per2 assay for evaluating the potency of test compounds (circadian luciferase reporter). It is filed as cell-based. The conditions noted are these: amplitude of Per2-dLuc luminescence vs log concentration. As to the method:
Compounds were screened by using a high-throughput circadian assay system as previously described in Zhang, E. E. et al. Cell, 2009, 139, 199-210. In brief, stable U20S reporter cells harboring Per2-dLuc were plated at a density of 30,000 cells/well in Corning 96-well, solid white, flat bottom, TC-treated microplates (Corning®), and incubated for 48 hours at 37° C. in the presence of 5% CO2 in a medium of Dulbecco's Modified Eagle Medium (DMEM) supplemented with 10% fetal bovine serum (FBS) and penicillin (100 units/mL)-streptomycin (100 μg/mL). […] DMSO stocks are then serially diluted in DMSO, typically diluting 3-fold for each dilution step. Following the 48 h period, cell culture medium is removed from plated cells and cells are synchronized with 200 μL/well of complete cell culture medium (described above), supplemented with 5 μM forskolin (Tocris®) and 1 mM beetle luciferin (Promega®). Immediately following synchronization, 1 μL of compound dilution is added to each well. Plates are sealed, shaken briefly, and gene expression was monitored by measuring luminescence (Tecan® Infinite M200 or Tecan® Infinite M200 Pro) continuously for a minimum of 3 days at 35° C. Raw luminescence data (counts) are first analyzed using Multicycle™ software (Actimetrics, Inc.) to determine the amplitude (amp), period, and phase (phz) for each compound concentration. The period length for control wells (i.e. no compound, DMSO only) should be 26-30 h. Amp data are then plotted against the logarithm compound concentration (M) and analyzed by nonlinear regression analysis to determine the EC50.
In general terms: Reporter assays use an easily measured gene product as a stand-in for the process of interest.
In the case of `O=C1COCCN1CC(O)Cn1c2ccc(F)cc2c2cc(F)ccc21` (centres unmarked) [Compound 55, 4-(3-(3,6-difluoro-9H-carbazol-9-yl)-2-hydroxypropyl)morpholin-3-one], a half-maximal effect (EC50) was put at 0.738 µM. With `CC(O)(CN1CCCC1=O)Cn1c2ccc(F)cc2c2cc(F)ccc21` (centres unmarked) [Compound 8, 1-(3-(3,6-difluoro-9H-carbazol-9-yl)-2-hydroxy-2-methylpropyl)pyrrolidin-2-one], the EC50 came out at 0.527 µM. In the case of `C[C@H]1CCC(=O)N(C[C@@H](O)Cn2c3ccccc3c3ccccc32)C1` [Compound 132, (S)-1-((S)-3-(9H-carbazol-9-yl)-2-hydroxypropyl)-5-methylpiperidin-2-one] it was 1.13 µM; in that of `O=C1C(C2CCC2)CCCN1CC(O)Cn1c2ccc(F)cc2c2cc(F)ccc21` (centres unmarked) [Compound 51, 3-cyclobutyl-1-(3-(3,6-difluoro-9H-carbazol-9-yl)-2-hydroxypropyl)piperidin-2-one], 0.265 µM; in that of `O=C1N(CC(O)Cn2c3ccc(F)cc3c3cc(F)ccc32)CCC1(F)F` (centres unmarked) [Compound 58, 1-(3-(3,6-difluoro-9H-carbazol-9-yl)-2-hydroxypropyl)-3,3-difluoropyrrolidin-2-one], 0.716 µM. The compound `CC(O)(CN1CCC(c2ccccc2)C1=O)Cn1c2ccc(F)cc2c2cc(F)ccc21` (centres unmarked) [Compound 54, 1-(3-(3,6-difluoro-9H-carbazol-9-yl)-2-hydroxy-2-methylpropyl)-3-phenylpyrrolidin-2-one] yielded an EC50 of 0.808 µM. In the case of `CCN1CCCN(CC(O)Cn2c3ccc(F)cc3c3cc(F)ccc32)C1=O` (centres unmarked) [Compound 86, 1-(3-(3,6-difluoro-9H-carbazol-9-yl)-2-hydroxypropyl)-3-ethyltetrahydropyrimidin-2(1H)-one] it was 0.497 µM; in that of `CCC1CCN(CC(O)Cn2c3ccc(F)cc3c3cc(F)ccc32)C1=O` (centres unmarked) [Compound 17, 1-(3-(3,6-difluoro-9H-carbazol-9-yl)-2-hydroxypropyl)-3-ethylpyrrolidin-2-one], 0.417 µM; in that of `O=C1Nc2ccccc2CN1CC(O)Cn1c2ccc(F)cc2c2cc(F)ccc21` (centres unmarked) [Compound 103, 3-(3-(3,6-difluoro-9H-carbazol-9-yl)-2-hydroxypropyl)-3,4-dihydroquinazolin-2(1H)-one], 0.94 µM. The figure for `C[C@H]1CCC(=O)N1C[C@H](O)Cn1c2ccc(F)cc2c2cc(F)ccc21` [Compound 110, (S)-1-((R)-3-(3,6-difluoro-9H-carbazol-9-yl)-2-hydroxypropyl)-5-methylpyrrolidin-2-one] is 0.83 µM; for `CC(O)(CN1CCCC(F)(F)C1=O)Cn1c2ccc(F)cc2c2cc(F)ccc21` (centres unmarked) [Compound 14, 1-(3-(3,6-difluoro-9H-carbazol-9-yl)-2-hydroxy-2-methylpropyl)-3,3-difluoropiperidin-2-one] it is 0.541 µM; for `O=C1N(CC(O)Cn2c3ccc(F)cc3c3cc(F)ccc32)CCCN1C1CCCCC1` (centres unmarked) [Compound 74, 1-cyclohexyl-3-(3-(3,6-difluoro-9H-carbazol-9-yl)-2-hydroxypropyl)tetrahydropyrimidin-2(1H)-one] it is 0.284 µM.

On to `CC1CCC(=O)N(CC(O)Cn2c3ccccc3c3ccccc32)C1` (centres unmarked) [Compound 62, 1-(3-(9H-carbazol-9-yl)-2-hydroxypropyl)-5-methylpiperidin-2-one], for which the concentration for a half-maximal effect (EC50) amounted to 0.37 µM. This EC50 and that of the compound before are within 1.5-fold of each other.

On to `CC(O)(CN1CCCN(C2CCC2)C1=O)Cn1c2ccc(F)cc2c2cc(F)ccc21` (centres unmarked) [Compound 81, 1-cyclobutyl-3-(3-(3,6-difluoro-9H-carbazol-9-yl)-2-hydroxy-2-methylpropyl)tetrahydropyrimidin-2(1H)-one], for which the EC50 stood at 0.816 µM. In the case of `CC1CC(=O)N(CC(O)Cn2c3ccc(F)cc3c3cc(F)ccc32)C1C` (centres unmarked) [Compound 47, 1-(3-(3,6-difluoro-9H-carbazol-9-yl)-2-hydroxypropyl)-4,5-dimethylpyrrolidin-2-one] it was 0.299 µM; in that of `CC1(C)CCCN(CC(O)Cn2c3ccc(F)cc3c3cc(F)ccc32)C1=O` (centres unmarked) [Compound 16, 1-(3-(3,6-difluoro-9H-carbazol-9-yl)-2-hydroxypropyl)-3,3-dimethylpiperidin-2-one], 0.463 µM; in that of `O=C1N(CC(O)Cn2c3ccc(F)cc3c3cc(F)ccc32)CCN1C1CCCCC1` (centres unmarked) [Compound 88, 1-cyclohexyl-3-(3-(3,6-difluoro-9H-carbazol-9-yl)-2-hydroxypropyl)imidazolidin-2-one], 0.31 µM. The figure for `O=C1N(CC(O)Cn2c3ccc(F)cc3c3cc(F)ccc32)CCN1C1CCC1` (centres unmarked) [Compound 93, 1-cyclobutyl-3-(3-(3,6-difluoro-9H-carbazol-9-yl)-2-hydroxypropyl)imidazolidin-2-one] is 0.129 µM. In the case of `COC1CCCN(CC(O)Cn2c3ccccc3c3ccccc32)C1=O` (centres unmarked) [Compound 60, 1-(3-(9H-carbazol-9-yl)-2-hydroxypropyl)-3-methoxypiperidin-2-one] it was 0.331 µM.

Regarding `C[C@@](O)(CN1CC[C@H](F)C1=O)Cn1c2ccc(F)cc2c2cc(F)ccc21` [Compound 125, (S)-1-((S)-3-(3,6-difluoro-9H-carbazol-9-yl)-2-hydroxy-2-methylpropyl)-3-fluoropyrrolidin-2-one], the EC50 came out at 0.451 µM. In the case of `C[C@](O)(CN1CC[C@H](F)C1=O)Cn1c2ccccc2c2ccccc21` [Compound 128, (S)-1-((R)-3-(9H-carbazol-9-yl)-2-hydroxy-2-methylpropyl)-3-fluoropyrrolidin-2-one] it was 0.172 µM. The figure for `CC(O)(CN1CCCC(F)C1=O)Cn1c2ccc(F)cc2c2cc(F)ccc21` (centres unmarked) [Compound 12, 1-(3-(3,6-difluoro-9H-carbazol-9-yl)-2-hydroxy-2-methylpropyl)-3-fluoropiperidin-2-one] is 0.909 µM.

For the compound `CCN1CCCN(CC(O)Cn2c3ccccc3c3ccccc32)C1=O` (centres unmarked) [Compound 95, 1-(3-(9H-carbazol-9-yl)-2-hydroxypropyl)-3-ethyltetrahydropyrimidin-2(1H)-one], the response was half-maximal at 0.568 µM (EC50). Against the preceding compound, the EC50 is about 1.6-fold lower.

On to `CC1CCCN(CC(O)Cn2c3ccc(F)cc3c3cc(F)ccc32)C1=O` (centres unmarked) [Compound 27, 1-(3-(3,6-difluoro-9H-carbazol-9-yl)-2-hydroxypropyl)-3-methylpiperidin-2-one], for which the response was half-maximal at 0.478 µM (EC50). In the case of `O=C1[C@H]2CC[C@H](C2)N1C[C@@H](O)Cn1c2ccccc2c2ccccc21` [Compound 108, (1R,4S)-2-((S)-3-(9H-carbazol-9-yl)-2-hydroxypropyl)-2-azabicyclo[2.2.1]heptan-3-one] it was 0.75 µM; in that of `C[C@@H]1CCN(C[C@H](O)Cn2c3ccc(F)cc3c3cc(F)ccc32)C1=O` [Compound 116, (R)-1-((R)-3-(3,6-difluoro-9H-carbazol-9-yl)-2-hydroxypropyl)-3-methylpyrrolidin-2-one], 0.311 µM.

Regarding `CC1CCC(=O)N1CC(O)Cn1c2ccc(F)cc2c2cc(F)ccc21` (centres unmarked) [Compound 34, 1-(3-(3,6-difluoro-9H-carbazol-9-yl)-2-hydroxypropyl)-5-methylpyrrolidin-2-one], a half-maximal response (EC50) required 0.286 µM.

Regarding `C[C@@H]1CCC(=O)N(C[C@@H](O)Cn2c3ccccc3c3ccccc32)C1` [Compound 133, (R)-1-((S)-3-(9H-carbazol-9-yl)-2-hydroxypropyl)-5-methylpiperidin-2-one], the EC50 came out at 0.838 µM. Against the preceding compound, the EC50 is about 2.9-fold higher. Compound `CC(C)C1CCCN(CC(C)(O)Cn2c3ccc(F)cc3c3cc(F)ccc32)C1=O` (centres unmarked) [Compound 26, 1-(3-(3,6-difluoro-9H-carbazol-9-yl)-2-hydroxy-2-methylpropyl)-3-isopropylpiperidin-2-one] returned an EC50 of 1.05 µM. The figure for `CC1(C)CC(=O)N(CC(O)Cn2c3ccc(F)cc3c3cc(F)ccc32)C1` (centres unmarked) [Compound 31, 1-(3-(3,6-difluoro-9H-carbazol-9-yl)-2-hydroxypropyl)-4,4-dimethylpyrrolidin-2-one] is 0.832 µM. The figure for `CC(O)(CN1Cc2ccccc2NC1=O)Cn1c2ccc(F)cc2c2cc(F)ccc21` (centres unmarked) [Compound 102, 3-(3-(3,6-difluoro-9H-carbazol-9-yl)-2-hydroxy-2-methylpropyl)-3,4-dihydroquinazolin-2(1H)-one] is 0.455 µM; for `CC(O)(CN1CCCC(C2CCCCC2)C1=O)Cn1c2ccc(F)cc2c2cc(F)ccc21` (centres unmarked) [Compound 21, 3-cyclohexyl-1-(3-(3,6-difluoro-9H-carbazol-9-yl)-2-hydroxy-2-methylpropyl)piperidin-2-one] it is 1.04 µM; for `O=C1N(CC(O)Cn2c3ccc(F)cc3c3cc(F)ccc32)CCCN1c1ccccc1` (centres unmarked) [Compound 75, 1-(3-(3,6-difluoro-9H-carbazol-9-yl)-2-hydroxypropyl)-3-phenyltetrahydropyrimidin-2(1H)-one] it is 0.171 µM. In the case of `CC(O)(CN1CCC(F)(F)C1=O)Cn1c2ccc(F)cc2c2cc(F)ccc21` (centres unmarked) [Compound 59, 1-(3-(3,6-difluoro-9H-carbazol-9-yl)-2-hydroxy-2-methylpropyl)-3,3-difluoropyrrolidin-2-one] it was 0.986 µM; in that of `O=C1N(CC(O)Cn2c3ccccc3c3ccccc32)CCCC1(F)F` (centres unmarked) [Compound 69, 1-(3-(9H-carbazol-9-yl)-2-hydroxypropyl)-3,3-difluoropiperidin-2-one], 0.137 µM.
